# Experimental data as given in patent publication US20250214978A1, “AT2R AGONIST” (WUHAN HUMANWELL INNOVATIVE DRUG RESEARCH AND DEVELOPMENT …, priority 2022, published 2025).
# Where two headings read alike, the source gives them in different places.
# Legend:
# CYP2C8 = CYP2C8 (Homo sapiens (Human), UniProt P10632); experiment: CYP inhibition assay in mixed human liver microsomes; type: in vitro ADME; conditions: mixed (pooled) human liver microsomes, read-out: Inhibition rate % CYP2C8
# Protocol: (§1) The inhibitory effects of the compounds on seven enzymes, i.e., CYP1A2, CYP2C9, CYP2C19, CYP2D6, CYP3A4 (midazolam), CYP2B6, and CYP2C8, were evaluated at a concentration of 10 μM. Mixed human liver microsomes, which were previously stored in a −80° C. refrigerator before use, were taken out and thawed in a water bath at 37° C. before use, and placed on ice for further operation. 100 μL of microsome working solution was taken, and added with 2 μL of test product or positive inhibitor working solution. 2 μL of solvent was added to the solvent control. The mixture was pre-incubated in a water bath at 37° C. for 10 minutes. After preincubation, 98 μL of NADPH regeneration solution was added to all samples to initiate the reaction. Then, the samples were put back into the water bath and incubated for a period of time. The reaction was quenched with 200 μL of stop solution. The plate was centrifuged at 3,220 g for 10 minutes, 100 μL of supernatant was transferred, and 100 μL of water was added and mixed well to the assay plate for LC/MS/MS analysis.
# [1] = Free plasma protein binding (PPB) assay, equilibrium dialysis; type: in vitro ADME; conditions: dialysis 6 hours at 37° C.
# Protocol: The dried dialysis membrane was soaked in ultrapure water for 1 hour, then soaked in 20% ethanol for 20 minutes, and then rinsed with ultrapure water for 2 to 3 times. Finally, the dried dialysis membrane was soaked in ultrapure water for 20 minutes for later use. The frozen plasma was thawed in a water bath at 37° C. for about 20 minutes. pH value of the plasma was measured after thawing was complete, and was adjusted to 7.4 with 1% phosphoric acid solution or 0.1M sodium hydroxide solution. […] The pretreated dialysis membrane was assembled into the dialysis plate according to product instructions, and 100 μL of receiving solution (100 mM phosphate buffer solution plus 0.002% Tween 80) was added to one side of the permeable membrane in each dialysis well. 20 μL of each of the final solution of the test compound and the final solution of the control compound were taken in a 96-well sample plate, two duplicate samples were made, and T0 sample was obtained, which was stored in a −20° C. refrigerator. Another 100 μL of each of the above-mentioned final solutions were taken to the other side of the membrane in the dialysis device, two duplicate samples were made, and incubated at 37° C. with constant shaking for 6 hours. After 6 hours of incubation, 20 μL of each of the dialyzed receiving solution and the administered plasma were taken, two duplicate samples were made, and sample A and sample B were obtained. Corresponding blank plasma or receiving solution of corresponding volume were added to sample B and sample A, respectively, allowing the volume ratio of plasma to buffer in each sample well to be 1:1. 300 μL of sample-containing internal standard acetonitrile solution was added to all the sample wells. The mixture was mixed well, and centrifuged at 5,500×g for 10 minutes. 150 μL of corresponding ultrapure water was added to the corresponding sample wells of the 96-well sample plate. 150 μL of the supernatant was taken into the sample wells, and mixed well. Then, LC/MS/MS analysis was performed. The calculation formula of fu is: […]
# where: CR: peak area ratio measured in the receiving chamber well CD: peak area ratio measured in the supply chamber well.
# [2] = Liver microsome stability assay; type: in vitro ADME; conditions: Rat liver microsomes; read-out: T1/2 (min) Rat
# [3] = Liver microsome stability assay; type: in vitro ADME; conditions: Mouse liver microsomes; read-out: T1/2 (min) Mouse
# [4] = Liver microsome stability assay; type: in vitro ADME; conditions: dog; Canine liver microsomes; read-out: T1/2 (min) Canine
# Caco-2 cells = experiment: Bidirectional permeability study in CACO-2 cells; type: in vitro ADME; conditions: Caco-2 monolayer, 2.00 μM, 2 hours, pH 7.40
# Protocol: Caco-2 cells were inoculated onto polyethylene membrane (PET) in 96-well inserted plates at a rate of 1×10^5 cells/cm^2, and the medium was changed every 4 to 5 days until day 21 to 28, to form a fused cell monolayer. The transport buffer in the assay was HBSS and 10.0 mM HEPES, with a pH of 7.40±0.05. The test compounds were subjected to a bidirectional test at 2.00 μM in the presence and absence of GF120918 (10.0 μM). Digoxin was subjected to a bidirectional test at 10.0 μM in the presence and absence of GF120918 (10.0 μM), while Nadolol and Metoprolol were subjected to a test from direction A to direction B at 2.00 μM in the absence of GF120918 (10.0 μM). The above tests were performed in duplicate. The final concentration of DMSO was adjusted to be lower than 1%. The plate was incubated in a CO2 incubator at 37° C.±1° C. for 2 hours, and 5% CO2 was added under saturated humidity without shaking. All the samples, after being mixed with acetonitrile containing internal standard, were centrifuged at 3,200 g for 10 minutes. […] The concentrations of the test compounds and control compounds in the starting solution, the donor solution, and the acceptor solution were quantified by LC-MS/MS based on a peak area ratio of the analyte to the internal standard.
# After the transport assay, the integrity of the Caco-2 cell monolayer was determined using Lucifer Yellow Exclusion Assay.
# AT2R = AT2R (Homo sapiens (Human), UniProt P50052); experiment: Binding assay of compounds to AT2R (Tag-lite HTRF ligand binding kit); conditions: 1 hour incubation at room temperature
# Protocol: The assay was performed in accordance with the instruction manual of Angiotensin AT2 Receptor Ligand Binding Assay Kit (#C1TT1AT2, Cisbio). First, a compound stock solution (10 mM) was diluted in a gradient at a 5× dilution ratio (including 10 concentrations, each with two replicates). 160 nL of compounds at different concentrations was added to a 384-well plate. 40 μL of 1×TLB was added to each well, and the mixture was shaken at room temperature for 15 minutes. 15 mL centrifuge tube added with 5 mL of 1×TLB was prepared in advance. The frozen labeled cells were thawed in a water bath at 37° C. (for 1 to 2 minutes), and the thawed cells were quickly transferred to the above 15 mL centrifuge tube. The mixture was mixed well and centrifuged at 1,000 g at room temperature for 5 minutes. The supernatant was removed, and the cells were resuspended by adding 2.7 mL 1×TLB. A new 384-well plate was taken, and 10 μL of mixed cells were added into the corresponding wells according to the assay design. 5 μL of 4× compound solution and 5 μL of 4× Tag-lite red fluorescent labeled ligand were added to each well. After incubation at room temperature for 1 hour, data were read using EnVision with an HTRF mode. The excitation light intensities at 665 nM and 615 nM in each well were read respectively, and the ratio was calculated (Ratio=A665nMIB615 nM). The IC50 value was calculated by means of GraphPad Prism8 software, where X represents logarithmic value of compound concentration; and Y represents ratio of A665 nM/B615 nM.
# CYP1A2 = CYP1A2 (Homo sapiens (Human), UniProt P05177); experiment: CYP inhibition assay in mixed human liver microsomes; type: in vitro ADME
# Protocol: as §1
# CYP2B6 = CYP2B6 (Homo sapiens (Human), UniProt P20813); experiment: as above; type: in vitro ADME; conditions: mixed (pooled) human liver microsomes, read-out: Inhibition rate % CYP2B6
# Protocol: as §1
# CYP2C19 = CYP2C19 (Homo sapiens (Human), UniProt P33261); experiment: as above; type: in vitro ADME; conditions: mixed (pooled) human liver microsomes, read-out: Inhibition rate % CYP2C19
# Protocol: as §1
# CYP2C9 = CYP2C9 (Homo sapiens (Human), UniProt P11712); experiment: as above; type: in vitro ADME; conditions: mixed (pooled) human liver microsomes, read-out: Inhibition rate % CYP2C9
# Protocol: as §1
# CYP2D6 = CYP2D6 (Homo sapiens (Human), UniProt P10635); experiment: as above; type: in vitro ADME; conditions: mixed (pooled) human liver microsomes, read-out: Inhibition rate % CYP2D6
# Protocol: as §1
# CYP3A4 = CYP3A4 (Homo sapiens (Human), UniProt P08684); experiment: as above; type: in vitro ADME; conditions: mixed (pooled) human liver microsomes, probe midazolam, read-out: Inhibition rate % CYP3A4 (midazolam)
# Protocol: as §1
# [5] = Liver microsome stability assay; type: in vitro ADME; conditions: Human liver microsomes, NADPH, 37° C.; read-out: T1/2 (min) Human
# Protocol: The human liver microsome stability assay was performed by co-incubating the compound with human liver microsomes in vitro. The test compounds were first prepared as 10 mM stock solutions in DMSO solvent, and then diluted to 0.5 mM with acetonitrile. Human liver microsomes (Corning) were diluted with PBS to prepare a microsome/buffer solution, and this solution was used to dilute 0.5 mM of the compound to prepare a working solution. In the working solution, a concentration of the compound was 1.5 μM and a concentration of the human liver microsome was 0.75 mg/ml. A deep-well plate was taken, 30 μL of working solution was added to each well of the plate, and then 15 μL of pre-heated NADPH solution (6 mM) was added to start the reaction. The mixture was incubated at 37° C. 135 μL of acetonitrile was added to the corresponding wells to stop the reaction at 0 minute, 5 minutes, 15 minutes, 30 minute, and 45 minutes of incubation. Subsequent to the stop of the reaction by means of acetonitrile at the last time point of 45 minute, the plate was vortexed for 10 minutes (600 rpm/min) and then centrifuged for 15 minutes. […] The peak area ratios of the compound at 5 minutes, 15 minutes, 30 minutes, and 45 minutes were compared with the peak area ratio at 0 minute, and the remaining percentage of the compound at each time point was calculated. T1/2 was calculated using Graphpad8 software.
# [6] = dog, pH 7.4, Canine plasma, read-out: fu % Canine
# [7] = pH 7.4, Human plasma, read-out: fu % Human
# [8] = pH 7.4, Mouse plasma, read-out: fu % Mouse
# [9] = pH 7.4, Rat plasma, read-out: fu % Rat
# Sequence of CYP2C8 (P10632 whole entry): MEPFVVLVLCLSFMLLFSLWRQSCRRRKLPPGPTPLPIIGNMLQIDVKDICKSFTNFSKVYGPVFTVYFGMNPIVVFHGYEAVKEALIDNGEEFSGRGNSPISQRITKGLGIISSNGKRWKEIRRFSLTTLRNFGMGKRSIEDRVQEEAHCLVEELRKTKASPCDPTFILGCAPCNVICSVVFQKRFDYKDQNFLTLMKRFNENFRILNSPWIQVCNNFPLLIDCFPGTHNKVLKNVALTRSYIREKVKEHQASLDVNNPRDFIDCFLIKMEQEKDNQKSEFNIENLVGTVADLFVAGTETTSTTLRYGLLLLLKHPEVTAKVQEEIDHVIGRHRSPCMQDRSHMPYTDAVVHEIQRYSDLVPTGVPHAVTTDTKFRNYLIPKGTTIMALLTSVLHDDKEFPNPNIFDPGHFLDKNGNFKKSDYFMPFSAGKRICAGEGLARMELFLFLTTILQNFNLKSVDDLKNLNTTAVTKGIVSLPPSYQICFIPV
# Sequence of CYP2C19 (P33261 whole entry): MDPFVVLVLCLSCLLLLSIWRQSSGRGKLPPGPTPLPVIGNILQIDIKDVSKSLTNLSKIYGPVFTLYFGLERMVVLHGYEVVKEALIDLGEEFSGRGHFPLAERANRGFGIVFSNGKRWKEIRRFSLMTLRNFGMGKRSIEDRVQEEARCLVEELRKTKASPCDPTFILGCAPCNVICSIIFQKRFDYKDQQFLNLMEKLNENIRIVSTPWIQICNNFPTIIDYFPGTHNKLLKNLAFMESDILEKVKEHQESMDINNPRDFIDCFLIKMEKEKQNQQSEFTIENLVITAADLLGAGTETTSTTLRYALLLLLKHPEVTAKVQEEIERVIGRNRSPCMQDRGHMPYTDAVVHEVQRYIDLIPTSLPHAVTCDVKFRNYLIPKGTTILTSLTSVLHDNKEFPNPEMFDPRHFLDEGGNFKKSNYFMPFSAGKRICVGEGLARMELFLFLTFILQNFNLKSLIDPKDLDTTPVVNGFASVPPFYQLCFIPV
# Sequence of CYP1A2 (P05177 whole entry): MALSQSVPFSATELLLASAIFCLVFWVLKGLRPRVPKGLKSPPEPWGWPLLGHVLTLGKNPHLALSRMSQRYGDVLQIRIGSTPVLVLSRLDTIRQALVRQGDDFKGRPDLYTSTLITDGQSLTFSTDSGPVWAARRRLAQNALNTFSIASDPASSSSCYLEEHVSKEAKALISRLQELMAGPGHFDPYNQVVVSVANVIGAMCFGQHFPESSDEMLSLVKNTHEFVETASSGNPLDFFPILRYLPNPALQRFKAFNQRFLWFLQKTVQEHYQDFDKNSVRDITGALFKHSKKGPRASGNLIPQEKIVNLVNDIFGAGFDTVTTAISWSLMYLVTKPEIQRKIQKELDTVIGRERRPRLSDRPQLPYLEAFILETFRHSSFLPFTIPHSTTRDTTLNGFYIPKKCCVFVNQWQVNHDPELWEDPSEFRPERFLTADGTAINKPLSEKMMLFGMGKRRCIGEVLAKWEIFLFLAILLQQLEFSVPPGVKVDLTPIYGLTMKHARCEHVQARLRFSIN
# Sequence of CYP2B6 (P20813 whole entry): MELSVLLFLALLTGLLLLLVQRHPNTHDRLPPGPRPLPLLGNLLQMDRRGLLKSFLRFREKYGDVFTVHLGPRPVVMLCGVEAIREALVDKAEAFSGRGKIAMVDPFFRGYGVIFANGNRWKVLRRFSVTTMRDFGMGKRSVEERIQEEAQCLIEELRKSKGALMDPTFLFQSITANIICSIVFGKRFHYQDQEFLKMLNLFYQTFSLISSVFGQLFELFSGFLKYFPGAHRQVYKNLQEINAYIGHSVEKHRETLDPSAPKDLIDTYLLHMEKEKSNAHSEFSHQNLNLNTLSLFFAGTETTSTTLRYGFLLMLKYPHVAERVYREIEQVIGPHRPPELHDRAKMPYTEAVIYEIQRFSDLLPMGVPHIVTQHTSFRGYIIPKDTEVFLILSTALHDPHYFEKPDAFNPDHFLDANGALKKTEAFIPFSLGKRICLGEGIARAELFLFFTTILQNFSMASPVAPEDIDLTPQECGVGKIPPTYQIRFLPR
# Sequence of CYP2D6 (P10635 whole entry): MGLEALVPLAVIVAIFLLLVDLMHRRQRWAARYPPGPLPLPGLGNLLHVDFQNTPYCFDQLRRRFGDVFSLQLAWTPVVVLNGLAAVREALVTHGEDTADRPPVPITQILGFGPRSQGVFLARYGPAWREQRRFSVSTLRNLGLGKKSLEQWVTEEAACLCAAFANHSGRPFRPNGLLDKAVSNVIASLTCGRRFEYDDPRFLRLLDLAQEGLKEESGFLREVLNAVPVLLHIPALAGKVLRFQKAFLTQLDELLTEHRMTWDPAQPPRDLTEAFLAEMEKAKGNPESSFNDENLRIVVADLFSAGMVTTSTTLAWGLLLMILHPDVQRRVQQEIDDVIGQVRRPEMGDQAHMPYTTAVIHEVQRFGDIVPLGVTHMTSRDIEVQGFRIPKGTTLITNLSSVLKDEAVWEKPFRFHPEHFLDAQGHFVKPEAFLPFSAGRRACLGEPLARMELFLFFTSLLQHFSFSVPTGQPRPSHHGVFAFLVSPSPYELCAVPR
# Sequence of AT2R (P50052 whole entry): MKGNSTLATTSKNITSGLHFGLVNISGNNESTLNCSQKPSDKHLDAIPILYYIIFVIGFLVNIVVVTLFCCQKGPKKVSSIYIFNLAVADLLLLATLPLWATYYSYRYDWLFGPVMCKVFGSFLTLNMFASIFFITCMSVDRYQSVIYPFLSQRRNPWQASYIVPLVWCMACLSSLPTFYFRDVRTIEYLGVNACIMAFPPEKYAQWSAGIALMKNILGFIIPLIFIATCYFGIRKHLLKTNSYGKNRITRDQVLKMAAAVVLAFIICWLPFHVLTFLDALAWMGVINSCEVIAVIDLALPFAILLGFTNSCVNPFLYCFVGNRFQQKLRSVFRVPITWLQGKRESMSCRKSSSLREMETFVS
# Sequence of CYP2C9 (P11712 whole entry): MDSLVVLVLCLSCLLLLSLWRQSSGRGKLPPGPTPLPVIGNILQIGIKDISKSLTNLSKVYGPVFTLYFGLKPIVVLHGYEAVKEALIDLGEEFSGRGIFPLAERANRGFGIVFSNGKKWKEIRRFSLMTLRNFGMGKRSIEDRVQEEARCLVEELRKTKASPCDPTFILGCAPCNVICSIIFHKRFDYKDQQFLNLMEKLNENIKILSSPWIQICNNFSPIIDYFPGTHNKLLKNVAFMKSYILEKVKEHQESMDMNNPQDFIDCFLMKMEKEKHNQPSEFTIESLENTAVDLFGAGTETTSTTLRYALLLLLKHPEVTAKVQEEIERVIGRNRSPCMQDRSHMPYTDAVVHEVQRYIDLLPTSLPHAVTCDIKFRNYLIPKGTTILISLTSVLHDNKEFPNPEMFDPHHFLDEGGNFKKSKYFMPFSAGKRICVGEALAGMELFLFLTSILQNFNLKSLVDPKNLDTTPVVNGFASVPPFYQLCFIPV
# Sequence of CYP3A4 (P08684 whole entry): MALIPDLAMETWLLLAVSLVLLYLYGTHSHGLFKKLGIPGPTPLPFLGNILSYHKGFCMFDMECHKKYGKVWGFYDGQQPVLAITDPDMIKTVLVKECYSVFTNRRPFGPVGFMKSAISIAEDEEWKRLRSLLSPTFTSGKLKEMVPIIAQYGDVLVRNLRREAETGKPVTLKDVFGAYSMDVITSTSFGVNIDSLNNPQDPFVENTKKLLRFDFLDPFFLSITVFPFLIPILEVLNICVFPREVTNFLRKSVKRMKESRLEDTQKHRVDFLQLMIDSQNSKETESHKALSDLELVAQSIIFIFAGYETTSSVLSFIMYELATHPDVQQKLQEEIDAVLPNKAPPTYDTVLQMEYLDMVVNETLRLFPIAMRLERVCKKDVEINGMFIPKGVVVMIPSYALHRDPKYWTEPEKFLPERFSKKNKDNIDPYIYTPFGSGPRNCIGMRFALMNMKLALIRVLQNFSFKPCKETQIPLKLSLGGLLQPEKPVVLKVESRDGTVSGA
inhibition at 10 µM (CYP2C8),"fraction unbound at 6 h, 1 μM [1, 6]","fraction unbound at 6 h, 1 μM [1, 7]","fraction unbound at 6 h, 1 μM [1, 8]","fraction unbound at 6 h, 1 μM [1, 9]",half-life at 1 μM [2],half-life at 1 μM [3],half-life at 1 μM [4],Papp mean value (10^−6 cm/s) A to B (Caco-2 cells),IC50 (AT2R),inhibition at 10 µM (CYP1A2),inhibition at 10 µM (CYP2B6),inhibition at 10 µM (CYP2C19),inhibition at 10 µM (CYP2C9),inhibition at 10 µM (CYP2D6),inhibition at 10 µM (CYP3A4),half-life at 1 μM [5],SMILES
97.5%,0.0023,0.0006,0.0009,0.0005,22.6 min,49.1 min,224 min,0.381 10^−6 cm/s,–,–,–,–,–,–,–,–,"CCCCOC(=O)NS(=O)(=O)c1sc(CC(C)C)cc1-c1ccc(Cn2ccnc2)cc1 [Control Compound I, reference compound]"
12.6%,0.0185,0.0039,0.0121,0.0097,–,–,–,–,1.51 nM,0%,27.6%,11%,28.3%,1.97%,13.4%,–,"COC(=O)NS(=O)(=O)c1sc(CC(C)C)cc1-c1ccc(Cn2ccnc2C)cc1C [Compound I-11, Methyl (5-isobutyl-3-(2-methyl-4-((2-methyl-1H-imidazol-1-yl)methyl)phenyl)thiophen-2-yl)sulfonylcarbamate]"
33.6%,0.0349,0.0126,–,0.0109,83.5 min,1730 min,578 min,–,2.68 nM,25%,11.1%,35.3%,46.8%,9.54%,6.78%,239 min,"COC(=O)NS(=O)(=O)c1sc(CC(C)C)c(C)c1-c1ccc(Cn2ccnc2C)cc1 [Compound I-16, Methyl (5-isobutyl-4-methyl-3-(4-((2-methyl-1H-imidazol-1-yl)methyl)phenyl)thiophen-2-yl)sulfonylcarbamate]"
